Source: patent publication US20250353819A1, “ARYL HYDANTOIN COMPOUNDS AND METHODS OF USE” (priority 2022, published 2025)
Where two headings read alike, the source gives them in different places.

Tests used:
[1] = Plasma protein binding (rapid equilibrium dialysis), human plasma; assay type: in vitro ADME
[2] = Stability in mouse cryopreserved hepatocytes; assay type: in vitro ADME
[3] = Whole blood-to-plasma ratio, mouse
[4] = Mouse exposure / pharmacokinetic studies; assay type: in vivo, mice; details: for half-life / clearance: iv, 1 mg/kg
CYP 2D6 = CYP 2D6 (Homo sapiens (Human), UniProt P10635); experiment: CYP inhibition in human liver microsomes, 2D6
Chain of CYP 2D6 (P10635 whole entry): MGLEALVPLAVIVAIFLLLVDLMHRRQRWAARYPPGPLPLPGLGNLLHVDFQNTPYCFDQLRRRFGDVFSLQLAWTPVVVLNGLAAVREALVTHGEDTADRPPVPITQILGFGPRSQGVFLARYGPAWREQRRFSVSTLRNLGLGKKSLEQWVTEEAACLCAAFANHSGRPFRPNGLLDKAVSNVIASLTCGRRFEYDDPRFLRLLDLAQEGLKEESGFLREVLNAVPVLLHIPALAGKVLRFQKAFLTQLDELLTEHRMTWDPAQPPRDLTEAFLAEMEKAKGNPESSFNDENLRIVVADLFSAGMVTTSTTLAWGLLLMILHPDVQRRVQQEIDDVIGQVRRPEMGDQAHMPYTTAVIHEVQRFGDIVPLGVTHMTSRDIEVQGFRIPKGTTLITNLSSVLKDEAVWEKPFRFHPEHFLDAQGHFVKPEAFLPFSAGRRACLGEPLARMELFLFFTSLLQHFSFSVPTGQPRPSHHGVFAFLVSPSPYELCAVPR

[5] = Whole blood-to-plasma ratio, rat; assay type: in vitro ADME
Description: As part of the assessment of the IV pharmacokinetics, an additional blood sample was collected from each rat at 1 h post dose for the purposes of determining the whole blood-to-plasma (B/P) ratio. Arterial blood was collected into tubes containing heparin. The haematocrit was determined via centrifugation (13000×g for 4 min using a Clemets® Microhematocrit centrifuge and Safecap® Plain Self-sealing Mylar Wrapped capillary tubes), and values ranged from 41% to 42%. Each blood aliquot ([…]) was collected and matrix matched with an equivalent volume of blank plasma. The remainder of the blood sample was centrifuged and […] plasma aliquot was collected and matrix matched with an equivalent volume of blank blood. Samples were frozen on dry ice and stored at −80° C. until analysis by LC-MS.

[6] = Pharmacokinetics in male Sprague Dawley rats; assay type: in vivo, rat; details: rats, mean (n = 3); for half-life: read-out: Apparent t1/2 (converted)
Description: IV and oral formulations were prepared using the same method. On the day of dosing the solid compound was dissolved in DMSO prior to addition of a saline solution (0.9% w/v). The samples were then mixed using vortexing producing colourless solutions. The IV formulation was filtered through a 0.22 μm syringe filter prior to dosing and the oral formulation was dosed without filtration.
Samples of arterial blood were collected up to 168 h post-dose. Urine samples were not collected as animals were housed in bedded cages. Arterial blood was collected directly into borosilicate vials (at 4° C.) containing heparin as anticoagulant. Once collected, blood samples were centrifuged, supernatant plasma was removed and stored frozen (−80° C.) until analysis by LC-MS. A summary of the bioanalytical method and assay validation details is included in Tables 14 and 15.
Plasma concentration versus time data were analysed using non-compartmental methods (PKSolver Version 2.0). Standard calculations for each pharmacokinetic parameter are listed below.

CYP 2C9 = CYP 2C9 (Homo sapiens (Human), UniProt P11712); experiment: CYP inhibition in human liver microsomes, 2C9
Chain of CYP 2C9 (P11712 whole entry): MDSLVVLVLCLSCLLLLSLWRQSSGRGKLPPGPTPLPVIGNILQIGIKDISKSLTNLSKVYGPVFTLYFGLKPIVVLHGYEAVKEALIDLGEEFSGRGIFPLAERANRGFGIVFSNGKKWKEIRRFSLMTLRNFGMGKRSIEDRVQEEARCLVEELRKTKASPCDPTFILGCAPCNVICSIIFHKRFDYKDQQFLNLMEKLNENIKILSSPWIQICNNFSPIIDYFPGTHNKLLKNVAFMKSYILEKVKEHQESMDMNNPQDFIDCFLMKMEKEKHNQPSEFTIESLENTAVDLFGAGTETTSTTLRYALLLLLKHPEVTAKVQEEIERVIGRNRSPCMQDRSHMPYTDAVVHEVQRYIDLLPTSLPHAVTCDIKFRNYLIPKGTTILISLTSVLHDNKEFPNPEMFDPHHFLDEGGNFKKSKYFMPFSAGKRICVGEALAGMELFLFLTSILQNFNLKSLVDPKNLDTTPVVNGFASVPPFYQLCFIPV

[7] = Stability in dog cryopreserved hepatocytes; assay type: in vitro ADME
LAPC4 cells = experiment: Androgen-dependent cell-based assay (DHT, LAPC4)
Description: Androgen-Dependent Cell-based Assay. As described by Jones and Diamond (2008), LAPC4 cells were cultured in phenol red free RPMI 1640 media supplemented with antibiotics and 10% FBS. […] […] Mean-effect plots (log[compound] vs. log[fractional effect]) were generated to determine the IC50 values for each test compound or combinations of test compounds at constant ratios.

CYP 1A2 = CYP 1A2 (Homo sapiens (Human), UniProt P05177); experiment: CYP inhibition in human liver microsomes, 1A2; assay type: in vitro ADME
Chain of CYP 1A2 (P05177 whole entry): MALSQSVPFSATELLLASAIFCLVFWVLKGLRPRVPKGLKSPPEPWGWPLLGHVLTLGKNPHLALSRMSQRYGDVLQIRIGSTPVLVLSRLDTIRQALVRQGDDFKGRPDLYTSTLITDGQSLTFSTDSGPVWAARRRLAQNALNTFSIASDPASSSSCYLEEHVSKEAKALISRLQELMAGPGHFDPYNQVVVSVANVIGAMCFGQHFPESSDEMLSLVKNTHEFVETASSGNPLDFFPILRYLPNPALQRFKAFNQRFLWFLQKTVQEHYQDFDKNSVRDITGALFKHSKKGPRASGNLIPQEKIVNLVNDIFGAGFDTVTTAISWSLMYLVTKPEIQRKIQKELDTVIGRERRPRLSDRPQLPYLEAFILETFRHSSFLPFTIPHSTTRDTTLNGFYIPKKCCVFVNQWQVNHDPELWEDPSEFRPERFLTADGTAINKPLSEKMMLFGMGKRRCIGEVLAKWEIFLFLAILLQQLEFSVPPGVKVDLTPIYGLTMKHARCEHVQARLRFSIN

[8] = Partition coefficient (Log D) by gradient HPLC; assay type: physicochemical; details: pH 7.4, chromatographic estimate; read-out: gLogD7.4
From the text: Partition Coefficient. Partition coefficient values (Log D) of the test compounds were estimated by correlation of their chromatographic retention properties against the characteristics of a series of standard compounds with known partition coefficient values using gradient HPLC (modification of a method reported by Lombardo et al., 2001).

[9] = mice, oral, mean dose 6.73 mg/kg
[10] = mice, oral, mean dose 13.5 mg/kg
[11] = mice, oral, mean dose 26.3 mg/kg
[12] = mice, oral, mean dose 55.6 mg/kg
[13] = mice, oral, mean dose 99.7 mg/kg

[2H]C([2H])([2H])C1(C([2H])([2H])[2H])NC(=O)N(c2ccc(F)c(C(C)(F)F)c2)C1=O [Compound IE, 3-(3-(1,1-difluoroethyl)-4-fluorophenyl)-5,5-bis(methyl-d3)imidazolidine-2,4-dione]
% bound [1]: 63% | fraction unbound ([1]; human, plasma, read-out: % bound (converted)): 0.367 | CLint [2]: <2 μL/min/10^6 | hepatocyte CLint ([2]; read-out: in vitro CLint): < 2000 µL/min/1e6 cells | B:P [3]: 1.0 | half-life ([4]; male, Swiss outbred, mouse, in vivo, IV 1 mg/kg, mice, read-out: apparent half-life (converted)): 30 h | clearance ([4]; male, Swiss outbred, mouse, in vivo, IV 1 mg/kg, mice, read-out: blood clearance): 0.59 mL/min/kg | half-life ([4]; male, Swiss outbred, mouse, in vivo, mice, IV, mean dose 1.0 mg/kg, read-out: Apparent t1/2 (converted)): 38 h | clearance ([4]; male, Swiss outbred, mouse, in vivo, mice, IV, mean dose 1.0 mg/kg, read-out: Plasma CL): 0.491 mL/min/kg | bioavailability ([4]; male, Swiss outbred, mouse, in vivo, po, mice, all doses 6.25 to 100 mg/kg, read-out: apparent oral bioavailability): ≥ 80% | AUC(0-t) ([4]; male, Swiss outbred, mouse, in vivo, 100 mg/kg PO in mice, read-out: AUC0-last): 1800 µg·h/mL | Cmax ([4]; male, Swiss outbred, mouse, in vivo, 100 mg/kg PO in mice, read-out: Cmax): 41000 ng/mL | Vd ([4]; male, Swiss outbred, mouse, in vivo, IV 1 mg/kg, mice, read-out: volume of distribution): 1.59 L/kg | AUC(0-t) ([4]; male, Swiss outbred, mouse, in vivo, mice, IV, mean dose 1.0 mg/kg, read-out: Plasma AUC0-48 h): 28.2 µg·h/mL | AUC(0-inf) ([4]; male, Swiss outbred, mouse, in vivo, mice, IV, mean dose 1.0 mg/kg, read-out: Plasma AUC0-inf): 33.9 µg·h/mL | Tmax ([4]; male, Swiss outbred, mouse, in vivo, mice, oral, mean dose 6.73 mg/kg): 3 h | AUC(0-t) ([4]; male, Swiss outbred, mouse, in vivo, mice, oral, mean dose 6.73 mg/kg, read-out: Plasma AUC0-48 h): 145 µg·h/mL | Cmax ([4]; male, Swiss outbred, mouse, in vivo, mice, oral, mean dose 6.73 mg/kg, read-out: Plasma Cmax): 3760 ng/mL | Tmax ([4]; male, Swiss outbred, mouse, in vivo, mice, oral, mean dose 13.5 mg/kg): 7 h | AUC(0-t) ([4]; male, Swiss outbred, mouse, in vivo, mice, oral, mean dose 13.5 mg/kg, read-out: Plasma AUC0-48 h): 320 µg·h/mL | Cmax ([4]; male, Swiss outbred, mouse, in vivo, mice, oral, mean dose 13.5 mg/kg, read-out: Plasma Cmax): 8590 ng/mL | Tmax ([4]; male, Swiss outbred, mouse, in vivo, mice, oral, mean dose 26.3 mg/kg): 7 h | AUC(0-t) ([4]; male, Swiss outbred, mouse, in vivo, mice, oral, mean dose 26.3 mg/kg, read-out: Plasma AUC0-48 h): 607 µg·h/mL | Cmax ([4]; male, Swiss outbred, mouse, in vivo, mice, oral, mean dose 26.3 mg/kg, read-out: Plasma Cmax): 14400 ng/mL | Tmax ([4]; male, Swiss outbred, mouse, in vivo, mice, oral, mean dose 55.6 mg/kg): 3 h | AUC(0-t) ([4]; male, Swiss outbred, mouse, in vivo, mice, oral, mean dose 55.6 mg/kg, read-out: Plasma AUC0-48 h): 1130 µg·h/mL | Cmax ([4]; male, Swiss outbred, mouse, in vivo, mice, oral, mean dose 55.6 mg/kg, read-out: Plasma Cmax): 28200 ng/mL | Tmax ([4]; male, Swiss outbred, mouse, in vivo, mice, oral, mean dose 99.7 mg/kg): 7 h | AUC(0-t) ([4]; male, Swiss outbred, mouse, in vivo, mice, oral, mean dose 99.7 mg/kg, read-out: Plasma AUC0-48 h): 1800 µg·h/mL | Cmax ([4]; male, Swiss outbred, mouse, in vivo, mice, oral, mean dose 99.7 mg/kg, read-out: Plasma Cmax): 40500 ng/mL | PlasmaVSS ([4]; mice, IV, mean dose 1.0 mg/kg): 1.6 L/kg | Apparent BA [4, 9]: 76% | Plasma AUC0-48 h/Dose [4, 9]: 21.5 (μg*h/mL)/(mg/kg) | Plasma Cmax/Dose [4, 9]: 0.559 (μg/mL)/(mg/kg) | Apparent BA [4, 10]: 84% | Plasma AUC0-48 h/Dose [4, 10]: 23.8 (μg*h/mL)/(mg/kg) | Plasma Cmax/Dose [4, 10]: 0.638 (μg/mL)/(mg/kg) | Apparent BA [4, 11]: 82% | Plasma AUC0-48 h/Dose [4, 11]: 23.1 (μg*h/mL)/(mg/kg) | Plasma Cmax/Dose [4, 11]: 0.547 (μg/mL)/(mg/kg) | Apparent BA [4, 12]: 72% | Plasma AUC0-48 h/Dose [4, 12]: 20.4 (μg*h/mL)/(mg/kg) | Plasma Cmax/Dose [4, 12]: 0.507 (μg/mL)/(mg/kg) | Apparent BA [4, 13]: 64% | Plasma AUC0-48 h/Dose [4, 13]: 18.0 (μg*h/mL)/(mg/kg) | Plasma Cmax/Dose [4, 13]: 0.407 (μg/mL)/(mg/kg) | CYP inhibition (CYP 2D6; CYP 2D6, concentrations up to 20 μM, human liver microsomes): did not inhibit | IC50 (CYP 2D6; read-out: CYP inhibition IC50, 2D6): > 20 µM | B:P [5]: 1.0 | AUC ([6]; male, Sprague Dawley, rat, in vivo, iv, 0.9 mg/kg, IV 0.9 mg/kg, read-out: Plasma AUCIV): 31.7 µg·h/mL | clearance ([6]; male, Sprague Dawley, rat, in vivo, iv, 0.9 mg/kg, IV 0.9 mg/kg, read-out: Plasma CL): 0.476 mL/min/kg | Cmax ([6]; male, Sprague Dawley, rat, in vivo, po, 0.9 mg/kg, PO 0.9 mg/kg, read-out: Plasma Cmax): 440 ng/mL | Tmax ([6]; male, Sprague Dawley, rat, in vivo, po, 0.9 mg/kg, PO 0.9 mg/kg, read-out: Tmax): 11 h | half-life ([6]; male, Sprague Dawley, rat, in vivo, IV 0.9 mg/kg): 32 ± 2 h | half-life ([6]; male, Sprague Dawley, rat, in vivo, PO 0.9 mg/kg): 39 h | Apparent t1/2 ([6]; IV 0.9 mg/kg): 32 h | PlasmaVSS ([6]; IV 0.9 mg/kg): 1.69 L/kg | BA ([6]; PO 0.9 mg/kg): 113% | Plasma AUCoral ([6]; PO 0.9 mg/kg): 36.0 H*ug/mL | CYP inhibition (CYP 2C9; CYP 2C9, concentrations up to 20 μM, human liver microsomes): did not inhibit | IC50 (CYP 2C9; read-out: CYP inhibition IC50, 2C9): > 20 µM | CLint ([7]; Dog cryopreserved hepatocytes): <2 μL/min/10^6 | hepatocyte CLint ([7]; dog cryopreserved hepatocytes, read-out: in vitro CLint): < 2000 µL/min/1e6 cells | IC50 (LAPC4 cells; Homo sapiens, DHT-induced, androgen-dependent LAPC4 prostate cancer cell line, read-out: LAPC4 IC50): > 100 µM | inhibition of DHT-induced cell proliferation (LAPC4 cells; concentrations up to 100 μM): did not inhibit | IC50 (CYP 1A2; 1A2, read-out: CYP inhibition IC50): > 20 µM | CYP inhibition (CYP 1A2; CYP 1A2, concentrations up to 20 μM, human liver microsomes): did not inhibit | chromatographic logD [8]: 2.5
